Data taken from ChEMBL document CHEMBL1125587, “Synthesis and antiviral and cytostatic properties of 3'-deoxy-3'-fluoro- and 2'-azido-3'-fluoro-2',3'-dideoxy-D-ribofuranosides of natural heterocyclic bases” (J Med Chem, 1991).
Values after ≈ are worked out from the molar mass of the structure shown.

What was measured:
[1] = system: HeLa; test: Concentration (MIC), which is required to reduce virus-induced cytopathogenicity in HeLa cells against Polio virus type-1; format: functional; details: Homo sapiens
[2] = system: HeLa; test: Concentration (MCC) required to cause a microscopically detectable alteration of normal cell morphology, in HeLa cells; format: functional; details: Homo sapiens
[3] = Concentration (MIC)required to reduce virus-induced cytopathogenicity in Primary rabbit kidney (PRK ) cells against HSV-2 with strain G; format: functional; details: Oryctolagus cuniculus
[4] = Concentration (MIC), required to reduce virus-induced cytopathogenicity in Primary rabbit kidney (PRK ) cells against Vesicular stomatitis virus type 1; format: functional; details: Oryctolagus cuniculus
[5] = Concentration (MIC), required to reduce virus-induced cytopathogenicity in Primary rabbit kidney (PRK ) cells against Vesicular stomatitis virus type 2; format: functional; details: Oryctolagus cuniculus
[6] = Concentration (MIC), which is required to reduce virus-induced cytopathogenicity in Primary rabbit kidney (PRK ) cells against Vaccinia virus; format: functional; details: Oryctolagus cuniculus
[7] = Concentration (MIC)required to reduce virus-induced cytopathogenicity in Primary rabbit kidney (PRK ) cells against HSV-1 with a strain KOS; format: functional; details: Oryctolagus cuniculus
[8] = Concentration (MCC) required to cause a microscopically detectable alteration of normal cell morphology, in Primary rabbit kidney (PRK) cells; format: functional, Oryctolagus cuniculus
[9] = system: Vero; test: Concentration (MCC) required to cause a microscopically detectable alteration of normal cell morphology, African green monkey kidney (Vero B) cells; format: functional; details: Chlorocebus sabaeus
[10] = system: Vero; test: Concentration (MIC), which is required to reduce virus-induced cytopathogenicity in African green monkey kidney (Vero B) cells against Coxsackie virus-B4; format: functional, Chlorocebus sabaeus
[11] = system: Vero; test: Concentration (MIC), which is required to reduce virus-induced cytopathogenicity in African green monkey kidney (Vero B) cells against Reo-virus-1; format: functional; details: Chlorocebus sabaeus
[12] = system: Vero; test: Concentration (MIC), which is required to reduce virus-induced cytopathogenicity in African green monkey kidney (Vero B) cells against forest virus; format: functional; details: Chlorocebus sabaeus
[13] = system: Vero; test: Concentration (MIC), which is required to reduce virus-induced cytopathogenicity in African green monkey kidney (Vero B) cells against Sindbis virus; format: functional; details: Chlorocebus sabaeus
[14] = system: Vero; test: Concentration (MIC), which is required to reduce virus-induced cytopathogenicity in HeLa cells of African green monkey kidney (Vero B) cells against RNA viruses including para-influenza virus-3; format: functional; details: Chlorocebus sabaeus
[15] = system: Vero; test: Concentration (MIC), which is required to reduce virus-induced cytopathogenicity in African green monkey kidney (Vero B) cells against para-influenza virus-3; format: functional; details: Chlorocebus sabaeus
[16] = Concentration (MIC)required to reduce virus-induced cytopathogenicity in Primary rabbit kidney (PRK ) cells against HSV-2 with a strain G; format: functional; details: Oryctolagus cuniculus
[17] = system: HeLa; test: Concentration (MIC), which is required to reduce virus-induced cytopathogenicity in HeLa cells o against Polio virus type-1; format: functional; details: Homo sapiens
[18] = system: MT4; test: Concentration required to reduce the viability of Human T-lymphoblast MT-4 cells; format: functional, cell-based
[19] = system: MOLT-4F; test: Concentration required to reduce the viability of Human T-lymphoblast Molt/4F cells; format: functional, cell-based
[20] = system: Raji; test: Concentration required to reduce the viability of Human B-lymphoblast Raji cells; format: functional, cell-based
[21] = system: L1210; test: Concentration required to reduce the viability of Murine leukemia L1210 cells; format: functional, cell-based; details: Mus musculus
[22] = Concentration (MIC), required to reduce virus-induced cytopathogenicity in HeLa cells of Primary rabbit kidney (PRK ) cells against Vesicular stomatitis virus type 2; format: functional; details: Oryctolagus cuniculus
[23] = Concentration (MIC), which is required to reduce virus-induced cytopathogenicity in HeLa cells of Primary rabbit kidney (PRK ) cells against DNA viruses including Vaccinia virus; format: functional; details: Oryctolagus cuniculus
[24] = system: Vero; test: Concentration (MIC), which is required to reduce virus-induced cytopathogenicity in African green monkey kidney (Vero B) cells against RNA viruses including Coxsackie virus-B4; format: functional; details: Chlorocebus sabaeus
[25] = system: HeLa; test: Concentration (MIC), which is required to reduce virus-induced cytopathogenicity in Primary rabbit kidney (PRK ) cells against Polio virus type-1; format: functional; details: Homo sapiens
[26] = Concentration (MIC)required to reduce virus-induced cytopathogenicity in Primary rabbit kidney (PRK ) cells against including HSV-2 with a strain G; format: functional; details: Oryctolagus cuniculus
[27] = Concentration (MIC), required to reduce virus-induced cytopathogenicity in HeLa cells of Primary rabbit kidney (PRK ) cells against Vesicular stomatitis virus type 1; format: functional; details: Oryctolagus cuniculus
[28] = Chlorocebus sabaeus, read-out: MIC

Row | Compound | MIC [1] | MCC [2] | MIC [4] | MIC [5] | MIC [6] | MIC [7] | MCC [8] | MCC [9] | MIC [10, 28] | MIC [11] | MIC [12] | MIC [13] | MIC [15] | MIC [16] | IC50 [18] | IC50 [19] | IC50 [20] | IC50 [21] | also measured
1 | Cc1cn([C@H]2O[C@H](CO)[C@@H](F)[C@H]2N=[N+]=[N-])c(=O)[nH]c1=O | > 400 µg/mL | > 400 µg/mL | < 400 µg/mL | > 400 µg/mL | > 400 µg/mL | > 400 µg/mL | >400 µg/mL | > 400 µg/mL | > 400 µg/mL | > 400 µg/mL | > 400 µg/mL | > 400 µg/mL | – | – | – | – | – | – | MIC [3]: > 400 µg/mL; MIC [14]: > 400 µg/mL
2 | Cc1cn([C@@H]2O[C@H](CO)[C@@H](F)[C@H]2N=[N+]=[N-])c(=O)[nH]c1=O | > 400 µg/mL | > 400 µg/mL | > 400 µg/mL | > 400 µg/mL | > 400 µg/mL | > 400 µg/mL | >400 µg/mL | > 400 µg/mL | > 400 µg/mL | > 400 µg/mL | > 400 µg/mL | > 400 µg/mL | > 400 µg/mL | > 400 µg/mL | – | – | – | – | –
3 | Nc1ccn([C@@H]2O[C@H](CO)[C@H](F)[C@H]2O)c(=O)n1 | – | > 400 µg/mL | > 400 µg/mL | – | > 400 µg/mL | > 400 µg/mL | >400 µg/mL | > 400 µg/mL | 150 µg/mL (≈ 612 µM) | 150 µg/mL (≈ 612 µM) | > 400 µg/mL | 300 µg/mL (≈ 1220 µM) | > 400 µg/mL | > 400 µg/mL | 7.9 µg/mL (≈ 32.2 µM) | 65 µg/mL (≈ 265 µM) | 98 µg/mL (≈ 400 µM) | 39 µg/mL (≈ 159 µM) | MIC [17]: 150 µg/mL (≈ 612 µM); MIC [22]: 300 µg/mL (≈ 1220 µM); MIC [10]: 300 µg/mL (≈ 1220 µM)
4 | O=c1ccn([C@@H]2O[C@H](CO)[C@@H](F)[C@H]2O)c(=O)[nH]1 | 150 µg/mL (≈ 609 µM) | > 400 µg/mL | > 400 µg/mL | > 400 µg/mL | – | > 400 µg/mL | >400 µg/mL | > 400 µg/mL | 300 µg/mL (≈ 1220 µM) | 150 µg/mL (≈ 609 µM) | > 400 µg/mL | 300 µg/mL (≈ 1220 µM) | > 400 µg/mL | > 400 µg/mL | 6.9 µg/mL (≈ 28 µM) | > 100 µg/mL | > 100 µg/mL | > 100 µg/mL | MIC [23]: > 400 µg/mL; MIC [24]: 300 µg/mL (≈ 1220 µM)
5 | [N-]=[N+]=NC1C(F)C(CO)OC1n1ccc(N)nc1=O (centres undefined) | > 400 µg/mL | > 400 µg/mL | > 300 µg/mL | > 400 µg/mL | > 400 µg/mL | > 400 µg/mL | >400 µg/mL | > 400 µg/mL | > 400 µg/mL | > 400 µg/mL | > 400 µg/mL | > 400 µg/mL | > 400 µg/mL | > 400 µg/mL | – | – | – | – | –
6 | Nc1nc(O)c2ncn([C@@H]3O[C@H](CO)[C@@H](F)[C@H]3O)c2n1 | – | > 400 µg/mL | > 200 µg/mL | > 200 µg/mL | 10 µg/mL (≈ 35.1 µM) | > 100 µg/mL | 200 µg/mL | 400 µg/mL | – | > 200 µg/mL | 40 µg/mL (≈ 140 µM) | 40 µg/mL (≈ 140 µM) | > 100 µg/mL | > 100 µg/mL | > 100 µg/mL | 75 µg/mL (≈ 263 µM) | 29 µg/mL (≈ 102 µM) | 5 µg/mL (≈ 17.5 µM) | MIC [25]: 150 µg/mL (≈ 526 µM)
7 | [N-]=[N+]=NC1C(F)C(CO)OC1n1cnc2c(N)ncnc21 (centres undefined) | > 200 µg/mL | > 400 µg/mL | – | > 200 µg/mL | 300 µg/mL (≈ 1020 µM) | > 400 µg/mL | >400 µg/mL | > 400 µg/mL | 300 µg/mL (≈ 1020 µM) | > 200 µg/mL | > 200 µg/mL | > 200 µg/mL | > 200 µg/mL | – | – | – | – | – | MIC [26]: > 200 µg/mL; MIC [27]: 300 µg/mL (≈ 1020 µM); MIC [10]: >200 µg/mL
8 | Nc1ncnc2c1ncn2[C@@H]1O[C@H](CO)[C@@H](F)[C@H]1O | 4 µg/mL (≈ 14.9 µM) | 40 µg/mL | – | > 10 µg/mL | 2 µg/mL (≈ 7.43 µM) | > 10 µg/mL | >40 µg/mL | 40 µg/mL | – | 1 µg/mL (≈ 3.71 µM) | 4 µg/mL (≈ 14.9 µM) | 4 µg/mL (≈ 14.9 µM) | > 4 µg/mL | > 10 µg/mL | 0.22 µg/mL (≈ 0.817 µM) | 28 µg/mL (≈ 104 µM) | 3.9 µg/mL (≈ 14.5 µM) | 1.6 µg/mL (≈ 5.94 µM) | MIC [27]: > 40 µg/mL
